Experimental data from US10287275B2, “16-member triamilide derivatives and uses thereof” (VICTOR PHARMA CO., LTD. ZHENJIANG, priority 2015, dated 2019).
Converted amounts (≈) assume the structure as drawn.

Columns and labels:
Assay type in all cases: cell-based
M. hyorinis BTS-7 = test: Mycoplasma susceptibility testing (MIC)
Description: (§1) The MIC's in Table I and Table II were determined by standard agar-dilution assays or broth-dilution microtiter test.

M. gallisepticum S6 = test: Mycoplasma susceptibility testing (MIC); conditions: Mycoplasmoides gallisepticum
Description: as §1

M. gallisepticum BG44T = test: Mycoplasma susceptibility testing (MIC); conditions: Mycoplasmoides gallisepticum
Description: as §1

Escherichia coli IN-F6-7 = test: Antibacterial MIC, agar-dilution or broth-dilution microtiter test; conditions: INF67; Strain E: Escherichia coli IN-F6-7
Description: as §1

Pasteurella 8217 = test: as above; conditions: Strain C: Pasteurella 8217
Description: as §1

salmonella LD4-8 = test: as above; conditions: LD48; Strain I: salmonella LD4-8
Description: as §1

[1] = test system: Escherichia coli 25922 (QC strain); test: as above; conditions: Strain F: Escherichia coli 25922 (QC strain)
Description: as §1

[2] = test system: Klebsiella pneumoniae 3699; test: as above; conditions: Strain K: Klebsiella pneumoniae 3699
Description: as §1

[3] = test system: Staphylococcus aureus 5-1; test: as above; conditions: 51; Strain G: Staphylococcus aureus 5-1
Description: as §1

[4] = test system: Actinobacillus pleuropneumoniae serotype 1; test: as above; conditions: Strain A: Actinobacillus pleuropneumoniae serotype 1
Description: as §1

Pasteurella 8229 = test: as above; conditions: Strain D: Pasteurella 8229
Description: as §1

[5] = test system: Staphylococcus aureus 29213 (QC strain); test: as above; conditions: Strain H: Staphylococcus aureus 29213 (QC strain)
Description: as §1

[6] = test system: Streptococcus pneumoniae 2349; test: as above; conditions: Strain L: Streptococcus pneumoniae 2349
Description: as §1

[7] = test system: Klebsiella pneumoniae 3753; test: as above; conditions: Strain J: Klebsiella pneumoniae 3753
Description: as §1

[8] = test system: Actinobacillus pleuropneumoniae serotype 7; test: as above; conditions: Strain B: Actinobacillus pleuropneumoniae serotype 7
Description: as §1

[9] = test system: Streptococcus pneumoniae 49619 (QC strain); test: as above; conditions: Strain M: Streptococcus pneumoniae 49619 (QC strain)
Description: as §1

MIC (M. hyorinis BTS-7) [µg/mL]	MIC (M. gallisepticum S6) [µg/mL]	MIC (M. gallisepticum BG44T) [µg/mL]	Compound	also measured
15.6 (≈ 19.4 µM)	< 0.12	< 0.12	CC[C@H]1OC(=O)C[C@@H](O)[C@H](C)[C@@H](O[C@@H]2O[C@H](C)[C@@H](O)[C@H](N(C)C)[C@H]2O)[C@@H](CCN2Cc3ccccc3C2)C[C@@H](C)C(=O)/C=C/C(C)=C/[C@@H]1CN(C)Cc1ccccc1 [Compound 12a, (4R,5S,6S,7R,9R,11E,13E,15R,16R)-15-((benzyl(methyl)amino)methyl)-6-(((2R,3R,4S,5S,6R)-4-(dimethylamino)-3,5-dihydroxy-6-methyltetrahydro-2H-pyran-2-yl)oxy)-16-ethyl-4-hydroxy-7-(2-(isoindolin-2-yl)ethyl)-5,9,13-trimethyloxacyclohexadeca-11,13-diene-2,10-dione]	–
3.91 (≈ 5.09 µM)	< 0.12	< 0.12	CC[C@H]1OC(=O)C[C@@H](O)[C@H](C)[C@@H](O[C@@H]2O[C@H](C)[C@@H](O)[C@H](N(C)C)[C@H]2O)[C@@H](CCN2Cc3ccccc3C2)C[C@@H](C)C(=O)/C=C/C(C)=C/[C@@H]1CN1CCCCC1 [Compound 12b, (4R,5S,6S,7R,9R,11E,13E,15R,16R)-6-(((2R,3R,4S,5S,6R)-4-(dimethylamino)-3,5-dihydroxy-6-methyltetrahydro-2H-pyran-2-yl)oxy)-16-ethyl-4-hydroxy-7-(2-(isoindolin-2-yl)ethyl)-5,9,13-trimethyl-15-(piperidin-1-ylmethyl)oxacyclohexadeca-11,13-diene-2,10-dione]	–
7.82 (≈ 10.3 µM)	< 0.12	< 0.12	CC[C@H]1OC(=O)C[C@@H](O)[C@H](C)[C@@H](O[C@@H]2O[C@H](C)[C@@H](O)[C@H](N(C)C)[C@H]2O)[C@@H](CCN2Cc3ccccc3C2)C[C@@H](C)C(=O)/C=C/C(C)=C/[C@@H]1CN(CC)CC [Compound 12c, (4R,5S,6S,7R,9R,11E,13E,15R,16R)-15-((diethylamino)methyl)-6-(((2R,3R,4S,5S,6R)-4-(dimethylamino)-3,5-dihydroxy-6-methyltetrahydro-2H-pyran-2-yl)oxy)-16-ethyl-4-hydroxy-7-(2-(isoindolin-2-yl)ethyl)-5,9,13-trimethyloxacyclohexadeca-11,13-diene-2,10-dione]	–
3.91 (≈ 4.91 µM)	< 0.12	< 0.12	CC[C@H]1OC(=O)C[C@@H](O)[C@H](C)[C@@H](O[C@@H]2O[C@H](C)[C@@H](O)[C@H](N(C)C)[C@H]2O)[C@@H](CCN2Cc3ccccc3C2)C[C@@H](C)C(=O)/C=C/C(C)=C/[C@@H]1CN1CC(C)CC(C)C1 (stereo partly drawn) [Compound 12d, (4R,5S,6S,7R,9R,11E,13E,15R,16R)-6-(((2R,3R,4S,5S,6R)-4-(dimethylamino)-3,5-dihydroxy-6-methyltetrahydro-2H-pyran-2-yl)oxy)-15-((3,5-dimethylpiperidin-1-yl)methyl)-16-ethyl-4-hydroxy-7-(2-(isoindolin-2-yl)ethyl)-5,9,13-trimethyloxacyclohexadeca-11,13-diene-2,10-dione]	–

The remaining lines, values behind:

Compound	MIC (M. hyorinis BTS-7) [µg/mL]	MIC (M. gallisepticum S6) [µg/mL]	MIC (M. gallisepticum BG44T) [µg/mL]	also measured
CC[C@H]1OC(=O)C[C@@H](O)[C@H](C)[C@@H](O[C@@H]2O[C@H](C)[C@@H](O)[C@H](N(C)C)[C@H]2O)[C@@H](CCN2CCCCC2)C[C@@H](C)C(=O)/C=C/C(C)=C/[C@@H]1CN(CC)Cc1ccccc1 [Compound 4i, (4R,5S,6S,7R,9R,11E,13E,15R,16R)-15-((benzyl(ethyl)amino)methyl)-6-(((2R,3R,4S,5S,6R)-4-(dimethylamino)-3,5-dihydroxy-6-methyltetrahydro-2H-pyran-2-yl)oxy)-16-ethyl-4-hydroxy-5,9,13-trimethyl-7-(2-(piperidin-1-yl)ethyl)oxacyclohexadeca-11,13-diene-2,10-dione]	15.6 (≈ 19.9 µM)	< 0.12	< 0.12	–
CC[C@H]1OC(=O)C[C@@H](O)[C@H](C)[C@@H](O[C@@H]2O[C@H](C)[C@@H](O)[C@H](N(C)C)[C@H]2O)[C@@H](CCN2CCCCC2)C[C@@H](C)C(=O)/C=C/C(C)=C/[C@@H]1CNCc1ccccc1 [Compound 4e, (4R,5S,6S,7R,9R,11E,13E,15R,16R)-15-((benzylamino)methyl)-6-(((2R,3R,4S,5S,6R)-4-(dimethylamino)-3,5-dihydroxy-6-methyltetrahydro-2H-pyran-2-yl)oxy)-16-ethyl-4-hydroxy-5,9,13-trimethyl-7-(2-(piperidin-1-yl)ethyl)oxacyclohexadeca-11,13-diene-2,10-dione]	–	–	–	MIC (Escherichia coli IN-F6-7): 256 µg/mL (≈ 339 µM); MIC (Pasteurella 8217): 32 µg/mL (≈ 42.3 µM); MIC (salmonella LD4-8): > 256 µg/mL; MIC [1]: 256 µg/mL (≈ 339 µM); MIC [2]: > 256 µg/mL; MIC [3]: 256 µg/mL (≈ 339 µM); MIC [4]: 256 µg/mL (≈ 339 µM); MIC (Pasteurella 8229): 16 µg/mL (≈ 21.2 µM); MIC [5]: 64 µg/mL (≈ 84.7 µM); MIC [6]: 64 µg/mL (≈ 84.7 µM); MIC [7]: > 256 µg/mL; MIC [8]: 256 µg/mL (≈ 339 µM); MIC [9]: 256 µg/mL (≈ 339 µM)
CC[C@H]1OC(=O)C[C@@H](O)[C@H](C)[C@@H](O[C@@H]2O[C@H](C)[C@@H](O)[C@H](N(C)C)[C@H]2O)[C@@H](CCN2CCCCC2)C[C@@H](C)C(=O)/C=C/C(C)=C/[C@@H]1CNC1CCCCC1 [Compound 4h, (4R,5S,6S,7R,9R,11E,13E,15R,16R)-15-((cyclohexylamino)methyl)-6-(((2R,3R,4S,5S,6R)-4-(dimethylamino)-3,5-dihydroxy-6-methyltetrahydro-2H-pyran-2-yl)oxy)-16-ethyl-4-hydroxy-5,9,13-trimethyl-7-(2-(piperidin-1-yl)ethyl)oxacyclohexadeca-11,13-diene-2,10-dione]	–	–	–	MIC (Escherichia coli IN-F6-7): 16 µg/mL (≈ 21.4 µM); MIC (Pasteurella 8217): 16 µg/mL (≈ 21.4 µM); MIC (salmonella LD4-8): 32 µg/mL (≈ 42.8 µM); MIC [1]: 16 µg/mL (≈ 21.4 µM); MIC [2]: > 256 µg/mL; MIC [3]: 256 µg/mL (≈ 342 µM); MIC [4]: 64 µg/mL (≈ 85.6 µM); MIC (Pasteurella 8229): 2 µg/mL (≈ 2.67 µM); MIC [5]: 64 µg/mL (≈ 85.6 µM); MIC [6]: 2 µg/mL (≈ 2.67 µM); MIC [7]: 128 µg/mL (≈ 171 µM); MIC [8]: 64 µg/mL (≈ 85.6 µM); MIC [9]: 32 µg/mL (≈ 42.8 µM)
CC[C@H]1OC(=O)C[C@@H](O)[C@H](C)[C@@H](O[C@@H]2O[C@H](C)[C@@H](O)[C@H](N(C)C)[C@H]2O)[C@@H](CCN2CC(C)CC(C)C2)C[C@@H](C)C(=O)/C=C/C(C)=C/[C@@H]1CN(C)Cc1cccnc1 (stereo partly drawn) [Compound 8b, (4R,5S,6S,7R,9R,11E,13E,15R,16R)-6-(((2R,3R,4S,5S,6R)-4-(dimethylamino)-3,5-dihydroxy-6-methyltetrahydro-2H-pyran-2-yl)oxy)-7-(2-(3,5-dimethylpiperidin-1-yl)ethyl)-16-ethyl-4-hydroxy-5,9,13-trimethyl-15-((methyl(pyridin-3-ylmethyl)amino)methyl)oxacyclohexadeca-11,13-diene-2,10-dione]	125 (≈ 156 µM)	3.91 (≈ 4.89 µM)	0.98 (≈ 1.23 µM)	–
CC[C@H]1OC(=O)C[C@@H](O)[C@H](C)[C@@H](O[C@@H]2O[C@H](C)[C@@H](O)[C@H](N(C)C)[C@H]2O)[C@@H](CCN2CC(C)CC(C)C2)C[C@@H](C)C(=O)/C=C/C(C)=C/[C@@H]1CN(Cc1ccccc1)C(C)C (stereo partly drawn) [Compound 8a, (4R,5S,6S,7R,9R,11E,13E,15R,16R)-15-((benzyl(isopropyl)amino)methyl)-6-(((2R,3R,4S,5S,6R)-4-(dimethylamino)-3,5-dihydroxy-6-methyltetrahydro-2H-pyran-2-yl)oxy)-7-(2-(3,5-dimethylpiperidin-1-yl)ethyl)-16-ethyl-4-hydroxy-5,9,13-trimethyloxacyclohexadeca-11,13-diene-2,10-dione]	3.91 (≈ 4.73 µM)	< 0.12	< 0.12	–
CC[C@H]1OC(=O)C[C@@H](O)[C@H](C)[C@@H](O[C@@H]2O[C@H](C)[C@@H](O)[C@H](N(C)C)[C@H]2O)[C@@H](CCN2CCCCC2)C[C@@H](C)C(=O)/C=C/C(C)=C/[C@@H]1CN(Cc1ccccc1)C(C)C [Compound 4j, (4R,5S,6S,7R,9R,11E,13E,15R,16R)-15-((benzyl(isopropyl)amino)methyl)-6-(((2R,3R,4S,5S,6R)-4-(dimethylamino)-3,5-dihydroxy-6-methyltetrahydro-2H-pyran-2-yl)oxy)-16-ethyl-4-hydroxy-5,9,13-trimethyl-7-(2-(piperidin-1-yl)ethyl)oxacyclohexadeca-11,13-diene-2,10-dione]	0.49 (≈ 0.614 µM)	< 0.12	< 0.12	–
CC[C@H]1OC(=O)C[C@@H](O)[C@H](C)[C@@H](O[C@@H]2O[C@H](C)[C@@H](O)[C@H](N(C)C)[C@H]2O)[C@@H](CCN2CC(C)CC(C)C2)C[C@@H](C)C(=O)/C=C/C(C)=C/[C@@H]1CN1Cc2ccccc2C1 (stereo partly drawn) [Compound 8c, (4R,5S,6S,7R,9R,11E,13E,15R,16R)-6-(((2R,3R,4S,5S,6R)-4-(dimethylamino)-3,5-dihydroxy-6-methyltetrahydro-2H-pyran-2-yl)oxy)-7-(2-(3,5-dimethylpiperidin-1-yl)ethyl)-16-ethyl-4-hydroxy-15-(isoindolin-2-ylmethyl)-5,9,13-trimethyloxacyclohexadeca-11,13-diene-2,10-dione]	125 (≈ 157 µM)	15.6 (≈ 19.6 µM)	7.82 (≈ 9.82 µM)	–
